How the values were obtained:
Format in all cases: cell-based
human TLR8 = target: T1, human TLR8 (Homo sapiens, UniProt Q9NR97); assay: TLR8 inhibition reporter assay (HEK-Blue SEAP reporter, R848 stimulation); details: HEK-Blue cells overexpressing human TLR8, SEAP reporter, R848 15.9 μM, 22 hour incubation
T1 construct: host or cells: HEK-Blue cells
T1 sequence (Q9NR97 27-1041): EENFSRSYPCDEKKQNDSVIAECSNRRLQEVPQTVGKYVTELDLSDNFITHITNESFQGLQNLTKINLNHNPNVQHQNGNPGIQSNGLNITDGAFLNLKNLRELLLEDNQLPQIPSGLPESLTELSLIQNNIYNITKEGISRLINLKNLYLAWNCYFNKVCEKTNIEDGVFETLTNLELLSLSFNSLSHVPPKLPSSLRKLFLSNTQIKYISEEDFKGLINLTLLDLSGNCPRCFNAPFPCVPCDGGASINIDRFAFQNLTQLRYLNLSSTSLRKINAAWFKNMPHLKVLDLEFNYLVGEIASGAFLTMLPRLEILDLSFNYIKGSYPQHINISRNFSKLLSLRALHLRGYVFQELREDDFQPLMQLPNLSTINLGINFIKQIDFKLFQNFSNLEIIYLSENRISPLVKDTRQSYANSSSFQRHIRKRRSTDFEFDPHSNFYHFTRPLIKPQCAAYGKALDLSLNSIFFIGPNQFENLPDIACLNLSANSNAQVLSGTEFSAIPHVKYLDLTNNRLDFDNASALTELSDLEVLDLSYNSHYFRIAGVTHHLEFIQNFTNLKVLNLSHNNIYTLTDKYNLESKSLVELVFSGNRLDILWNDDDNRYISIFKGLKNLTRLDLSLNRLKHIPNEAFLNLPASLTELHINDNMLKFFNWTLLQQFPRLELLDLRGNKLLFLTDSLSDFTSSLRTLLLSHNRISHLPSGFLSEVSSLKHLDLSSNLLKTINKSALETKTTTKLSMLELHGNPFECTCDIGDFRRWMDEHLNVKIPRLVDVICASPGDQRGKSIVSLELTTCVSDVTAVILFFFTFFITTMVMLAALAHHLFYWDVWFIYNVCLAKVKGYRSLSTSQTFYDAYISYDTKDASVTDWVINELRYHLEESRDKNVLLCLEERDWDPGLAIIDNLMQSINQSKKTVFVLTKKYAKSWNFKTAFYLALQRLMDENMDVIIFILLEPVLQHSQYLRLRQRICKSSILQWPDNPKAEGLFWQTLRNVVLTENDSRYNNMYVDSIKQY
Outline: (§1)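 Screening used HEK-Blue cells overexpressing one human TLR (7, 8 or 9) and an IFN-β minimal promoter–NF-κB/AP-1 SEAP construct. Stimulation lasted 22 h at 37 °C with receptor-specific agonist: gardiquimod, R848 or ODN2006 at 7.5 μM, 15.9 μM and 5 nM.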

human TLR9 = target: T2, human TLR9 (Homo sapiens, UniProt Q9NR96); assay: TLR9 inhibition reporter assay (HEK-Blue SEAP reporter, ODN2006 stimulation); details: HEK-Blue cells overexpressing human TLR9, SEAP reporter, ODN2006 5 nM, 22 hour incubation
T2 construct: host or cells: HEK-Blue cells
T2 sequence (Q9NR96 26-1032): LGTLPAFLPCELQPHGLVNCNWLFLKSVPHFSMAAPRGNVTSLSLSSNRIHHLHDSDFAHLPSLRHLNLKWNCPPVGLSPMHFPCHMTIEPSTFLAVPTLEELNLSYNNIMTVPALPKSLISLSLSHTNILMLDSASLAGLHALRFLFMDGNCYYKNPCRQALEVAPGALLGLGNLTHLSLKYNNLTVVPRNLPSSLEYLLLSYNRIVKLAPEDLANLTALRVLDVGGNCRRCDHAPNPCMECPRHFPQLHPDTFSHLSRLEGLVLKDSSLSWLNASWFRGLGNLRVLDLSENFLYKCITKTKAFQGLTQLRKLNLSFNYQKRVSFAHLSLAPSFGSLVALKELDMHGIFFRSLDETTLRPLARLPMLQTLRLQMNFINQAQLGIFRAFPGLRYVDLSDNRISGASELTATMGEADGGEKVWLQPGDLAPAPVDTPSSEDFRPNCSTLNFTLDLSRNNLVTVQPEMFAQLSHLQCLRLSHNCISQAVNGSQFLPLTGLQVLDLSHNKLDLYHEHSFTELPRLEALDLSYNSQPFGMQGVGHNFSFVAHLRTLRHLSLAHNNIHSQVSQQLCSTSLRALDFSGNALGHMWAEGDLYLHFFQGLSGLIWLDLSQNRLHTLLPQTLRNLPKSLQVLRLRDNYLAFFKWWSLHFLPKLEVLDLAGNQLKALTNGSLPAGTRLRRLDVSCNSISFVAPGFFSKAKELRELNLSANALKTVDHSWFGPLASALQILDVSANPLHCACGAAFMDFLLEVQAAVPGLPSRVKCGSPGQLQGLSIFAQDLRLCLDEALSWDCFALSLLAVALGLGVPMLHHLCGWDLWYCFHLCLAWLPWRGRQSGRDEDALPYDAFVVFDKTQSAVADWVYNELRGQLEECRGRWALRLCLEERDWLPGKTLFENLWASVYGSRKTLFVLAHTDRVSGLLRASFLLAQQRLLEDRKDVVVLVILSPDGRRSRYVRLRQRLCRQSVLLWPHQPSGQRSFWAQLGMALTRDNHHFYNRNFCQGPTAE
Outline: as §1

human TLR7 = target: T3, human TLR7 (Homo sapiens, UniProt Q9NYK1); assay: TLR7 inhibition reporter assay (HEK-Blue SEAP reporter, gardiquimod stimulation); details: HEK-Blue cells overexpressing human TLR7, SEAP reporter, gardiquimod 7.5 μM, 22 hour incubation
T3 construct: host or cells: HEK-Blue cells
T3 sequence (Q9NYK1 27-1049): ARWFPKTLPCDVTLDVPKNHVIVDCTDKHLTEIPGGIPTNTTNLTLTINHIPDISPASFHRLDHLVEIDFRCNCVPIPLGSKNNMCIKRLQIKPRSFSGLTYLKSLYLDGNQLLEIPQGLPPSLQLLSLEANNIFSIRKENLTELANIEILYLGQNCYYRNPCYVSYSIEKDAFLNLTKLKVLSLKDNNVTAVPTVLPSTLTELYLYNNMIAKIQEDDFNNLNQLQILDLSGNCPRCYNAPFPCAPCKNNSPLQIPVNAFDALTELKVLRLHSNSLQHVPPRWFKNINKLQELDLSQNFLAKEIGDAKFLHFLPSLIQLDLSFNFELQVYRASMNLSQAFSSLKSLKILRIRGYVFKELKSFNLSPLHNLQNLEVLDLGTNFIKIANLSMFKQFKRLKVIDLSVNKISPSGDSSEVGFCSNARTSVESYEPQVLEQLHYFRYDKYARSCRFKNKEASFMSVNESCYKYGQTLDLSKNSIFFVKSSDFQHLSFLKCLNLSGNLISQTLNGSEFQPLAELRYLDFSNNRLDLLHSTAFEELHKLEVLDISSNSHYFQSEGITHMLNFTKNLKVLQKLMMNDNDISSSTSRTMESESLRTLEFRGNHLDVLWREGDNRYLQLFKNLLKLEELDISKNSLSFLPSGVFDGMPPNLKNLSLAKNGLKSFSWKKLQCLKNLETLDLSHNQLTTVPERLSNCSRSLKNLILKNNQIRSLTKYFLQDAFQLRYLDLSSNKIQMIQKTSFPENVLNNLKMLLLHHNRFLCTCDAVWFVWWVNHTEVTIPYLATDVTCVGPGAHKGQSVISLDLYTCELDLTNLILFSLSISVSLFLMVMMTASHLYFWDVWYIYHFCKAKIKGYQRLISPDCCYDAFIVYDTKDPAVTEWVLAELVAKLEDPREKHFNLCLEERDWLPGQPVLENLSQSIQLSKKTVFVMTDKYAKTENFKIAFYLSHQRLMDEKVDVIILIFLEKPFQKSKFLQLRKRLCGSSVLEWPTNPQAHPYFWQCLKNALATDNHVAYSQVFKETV
Outline: as §1

Structure (SMILES) | IC50 (human TLR8) | IC50 (human TLR9) | IC50 (human TLR7)
Cc1cc(-c2[nH]c3ccc(C4CCN(CCCC(F)(F)F)CC4)cc3c2C(C)C)cn(CC(C)C)c1=O [Example 110, 1-isobutyl-5-(3-isopropyl-5-(1-(4,4,4-trifluorobutyl)piperidin-4-yl)-1H-indol-2-yl)-3-methylpyridin-2(1H)-one] | 163 nM | 5.26 µM | 56.1 nM
Cc1cc(-c2[nH]c3ccc(C4CCN(CCCC(F)(F)F)CC4)cc3c2C(C)C)cn(Cc2ccccc2)c1=O [Example 111, 1-benzyl-5-(3-isopropyl-5-(1-(4,4,4-trifluorobutyl)piperidin-4-yl)-1H-indol-2-yl)-3-methylpyridin-2(1H)-one] | 157 nM | 3.06 µM | 48 nM
Cc1cc(-c2[nH]c3ccc(C4CCN(CC(C)C)CC4)cc3c2C(C)C)cn(CC(C)C)c1=O [Example 112, 1-isobutyl-5-(5-(1-isobutylpiperidin-4-yl)-3-isopropyl-1H-indol-2-yl)-3-methylpyridin-2(1H)-one] | 70.5 nM | 2.36 µM | 38.9 nM
Cc1cc(-c2[nH]c3ccc(C4CCN(CC(C)C)CC4)cc3c2C(C)C)cn(Cc2ccccc2)c1=O [Example 113, 1-benzyl-5-(5-(1-isobutylpiperidin-4-yl)-3-isopropyl-1H-indol-2-yl)-3-methylpyridin-2(1H)-one] | 70.7 nM | 2.19 µM | 26.4 nM
CC(C)c1c(-c2ccc(=O)n(C)c2)[nH]c2ccc(C3CCN(CC(=O)N(C)C)CC3)cc12 [Example 114, 2-(4-(3-isopropyl-2-(1-methyl-6-oxo-1,6-dihydropyridin-3-yl)-1H-indol-5-yl)piperidin-1-yl)-N,N-dimethylacetamide] | 43.6 nM | 10.4 µM | 42.9 nM
Cc1nc(-c2[nH]c3ccc(C4CCN(CC(=O)N(C)C)CC4)cc3c2C(C)C)cn(C)c1=O [Example 115, 2-(4-(2-(4,6-dimethyl-5-oxo-4,5-dihydropyrazin-2-yl)-3-isopropyl-1H-indol-5-yl)piperidin-1-yl)-N,N-dimethylacetamide] | 42.1 nM | 6.59 µM | 48 nM
Cc1cc(-c2[nH]c3ccc(C4CCN(CC(=O)N(C)C)CC4)cc3c2C(C)C)nn(C)c1=O [Example 116, 2-(4-(2-(1,5-dimethyl-6-oxo-1,6-dihydropyridazin-3-yl)-3-isopropyl-1H-indol-5-yl)piperidin-1-yl)-N,N-dimethylacetamide] | 23.8 nM | 6.1 µM | 29.6 nM

Now those with a lower IC50 (human TLR8), led by results:

IC50 (human TLR8) | IC50 (human TLR9) | IC50 (human TLR7) | Structure (SMILES)
10.7 nM | 5.52 µM | 5.1 nM | Cc1c(-c2[nH]c3ccc(C4CCN(CCCC(F)(F)F)CC4)cc3c2C(C)C)cn(C)c(=O)c1Cl [Example 105, 3-chloro-5-(3-isopropyl-5-(1-(4,4,4-trifluorobutyl)piperidin-4-yl)-1H-indol-2-yl)-1,4-dimethylpyridin-2(1H)-one]
9.7 nM | 5.31 µM | 13 nM | COCCn1cc(-c2[nH]c3ccc(C4CCN(CC(C)C)CC4)cc3c2C(C)C)cc(C)c1=O [Example 109, 5-(5-(1-isobutylpiperidin-4-yl)-3-isopropyl-1H-indol-2-yl)-1-(2-methoxyethyl)-3-methylpyridin-2(1H)-one]
5.5 nM | 1.25 µM | 6.2 nM | Cc1c(-c2[nH]c3ccc(C4CCN(CC(C)C)CC4)cc3c2C(C)C)cn(C)c(=O)c1Cl [Example 106, 3-chloro-5-(5-(1-isobutylpiperidin-4-yl)-3-isopropyl-1H-indol-2-yl)-1,4-dimethylpyridin-2(1H)-one]
5.3 nM | 14 µM | 2 nM | CNC(=O)CN1CCC(c2ccc3[nH]c(-c4cc(C)c(=O)n(C)c4)c(C(C)C)c3c2)CC1 [Example 117, 2-(4-(2-(1,5-dimethyl-6-oxo-1,6-dihydropyridin-3-yl)-3-isopropyl-1H-indol-5-yl)piperidin-1-yl)-N-methylacetamide]
4.4 nM | 13.4 µM | 6.6 nM | Cc1c(-c2[nH]c3ccc(C4CCN(CCS(C)(=O)=O)CC4)cc3c2C(C)C)cn(C)c(=O)c1Cl [Example 107, 3-chloro-5-(3-isopropyl-5-(1-(2-(methylsulfonyl)ethyl)piperidin-4-yl)-1H-indol-2-yl)-1,4-dimethylpyridin-2(1H)-one]
3.5 nM | 2.7 µM | 13.1 nM | CC(C)c1c(-c2cc(-c3cncnc3)c(=O)n(C)c2)[nH]c2ccc(C3CCN(CCCC(F)(F)F)CC3)cc12 [Example 104, 5-(3-isopropyl-5-(1-(4,4,4-trifluorobutyl)piperidin-4-yl)-1H-indol-2-yl)-1-methyl-3-(pyrimidin-5-yl)pyridin-2(1H)-one]
2 nM | 7.54 µM | 32.8 nM | CC(C)c1c(-c2cc(-c3cncnc3)c(=O)n(C)c2)[nH]c2ccc(C3CCN(CCS(C)(=O)=O)CC3)cc12 [Example 108, 5-(3-isopropyl-5-(1-(2-(methylsulfonyl)ethyl)piperidin-4-yl)-1H-indol-2-yl)-1-methyl-3-(pyrimidin-5-yl) pyridin-2(1H)-one]
